Laboratory results from patent publication US12607406B2, “Recombinant virus, composition comprising the same, and uses thereof” (ACADEMIA SINICA, priority 2016, dated 2026).

Legend:
Format in all cases: biochemical
[1] = system: Influenza A virus A/WSN/33 (H1N1) neuraminidase (NA) variant 44-G, substitution at position 44, SEQ ID NO: 8
[2] = system: Influenza A virus A/WSN/33 (H1N1) neuraminidase (NA) on virus, variant 44-G, substitution at position 44, SEQ ID NO: 8
[3] = system: Influenza A virus A/WSN/33 (H1N1) neuraminidase (NA) variant 44-72-219-G, substitutions at positions 44, 72, and 219, SEQ ID NO: 11
[4] = system: Influenza A virus A/WSN/33 (H1N1) neuraminidase (NA), all mutants (44-G, 72-G, 44-72-G, 44-72-219-G)
[5] = system: Influenza A virus A/WSN/33 (H1N1) neuraminidase (NA) variant 44-72-G, substitutions at positions 44 and 72, SEQ ID NO: 10
[6] = system: Influenza A virus A/WSN/33 (H1N1) neuraminidase (NA) on virus, variant 44-72-219-G, substitutions at positions 44, 72, and 219, SEQ ID NO: 11
[7] = system: Influenza A virus A/WSN/33 (H1N1) neuraminidase (NA) on virus, variant 72-G, substitution at position 72, SEQ ID NO: 9
[8] = system: Influenza A virus A/WSN/33 (H1N1) neuraminidase (NA) on virus, variant 44-72-G, substitutions at positions 44 and 72, SEQ ID NO: 10
[9] = system: Influenza A virus A/WSN/33 (H1N1) neuraminidase (NA) variant 72-G, substitution at position 72, SEQ ID NO: 9

SMILES	Kcat [1]	Km [1]	Vmax [1]	Km [2]	Kcat [3]	Km [3]	Vmax [3]	Km values of all mutants [4]	Kcat [5]	Km [5]	Vmax [5]	Km [6]	Km [7]	Km [8]	Kcat [9]	Km [9]	Vmax [9]	Km value increased [1]	Km value increased [9]
CC(=O)N[C@H]1[C@H]([C@H](O)[C@H](O)CO)O[C@@](OC[C@H]2O[C@@H](O[C@H]3[C@H](O)[C@@H](NC(C)=O)C(O)O[C@@H]3CO)[C@H](O)[C@@H](O)[C@H]2O)(C(=O)O)C[C@@H]1O (stereo partly shown) [6SLN, 6′-sialyl-N-acetyllactosamine]	90.6 s⁻¹	684 µM	0.92 nM/s	525 µM	20.7 s⁻¹	675 µM	0.21 nM/s	similar	19.8 s⁻¹	679 µM	0.24 nM/s	515 µM	540 µM	521 µM	83.6 s⁻¹	688 µM	0.85 nM/s		
CC(=O)N[C@H]1[C@H]([C@H](O)[C@H](O)CO)O[C@@](O[C@H]2[C@@H](O)[C@@H](CO)O[C@@H](O[C@H]3[C@H](O)[C@@H](NC(C)=O)C(O)O[C@@H]3CO)[C@@H]2O)(C(=O)O)C[C@@H]1O (stereo partly shown) [3SLN, 3′-sialyl-N-acetyllactosamine]	389.8 s⁻¹	295 µM	4.09 nM/s	274 µM	139.1 s⁻¹	299 µM	1.48 nM/s		136.4 s⁻¹	296 µM	1.46 nM/s	281 µM	268 µM	285 µM	364.4 s⁻¹	289 µM	3.89 nM/s	more than two-fold	more than two-fold
CC(=O)N[C@H]1[C@H]([C@H](O)[C@H](O)CO)O[C@@](Oc2ccc3c(C)cc(=O)oc3c2)(C(=O)O)C[C@@H]1O [4-Muα-Neu5Ac, 2-(4-methylumbelliferyl)-α-D-N-acetylneuraminic acid]	468.5 s⁻¹	595 µM	4.95 nM/s	508 µM	105.8 s⁻¹	597 µM	1.2 nM/s	similar	100.3 s⁻¹	588 µM	1.15 nM/s	415 µM	485 µM	429 µM	426.8 s⁻¹	591 µM	4.45 nM/s		
